Reference: patent US20150164867A1, “METHODS OF IMPROVING LONG-TERM SURVIVAL AND REDUCING HOSPITALIZATION READMISSION RATES FOR SUBJECTS SUFFERING FROM HEPATIC ENCEPHALOPATHY” (Salix Pharmaceuticals, Ltd, priority 2012, published 2015)

Experiments:
[1] = tested on: patients admitted for overt HE; test: Chart review of survival outcomes in patients admitted for overt HE; assay type: in vivo, human; conditions: for Survival Rates, One Year / Survival Rates, Six Months / Survival Rates, Three Years: overt HE patients; for Survival Rates, One Year: one year after discharge; for Survival Rates, Six Months: six months after discharge, RFX 1200 then 1100 mg/day, LAC 30-120 cc/day; for Survival Rates, Three Years: three years after discharge
From the text: The medical charts of outpatient and hospitalized patients admitted for overt HE were examined over a 137-month (about an 11.5-year) window. Information collected included gender, age, ethnicity, post discharge HE management protocol, HE hospitalization number (frequency) and time (days) to transplant or death. […] The lactulose dose (LAC) was 30-120 cc/day, adjusted to acquire two to three loose to soft bowel movements. Time from discharge to death or transplant was reported.
In the study, 185 patients were identified, 106 of which were males, 79 or which were females. The median age was 48.5 years (range: 28-72 years). The ethnic group breakdown was as follows: 66% Caucasian, 12% African American, 18% Hispanic, 4% Other. The mean MELD score was 18.5 points (range: 12-40).

[2] = tested on: patients admitted for overt HE; test: Chart review of hospital readmission in cirrhotic patients with overt HE; assay type: in vivo, human
From the text: The medical charts of outpatient and hospitalized patients admitted for overt HE were examined over a 137-month (about an 11.5-year) window. Information collected included gender, age, ethnicity, MELD score, post discharge HE management protocol, HE hospitalization number (frequency), time to readmission (days) and health insurance coverage. All patients suffering from infection, renal failure, gastrointestinal bleeding or […] were excluded. Group one consisted of patients discharged with lactulose (LAC) treatment. Group two consisted of patients discharged on rifaximin (RFX) treatment. Group three consisted of patients discharged on rifaximin treatment combined with lactulose treatment (RFX/LAC). […] The lactulose dose (LAC) was 30-120 cc/day, adjusted to acquire two to three loose to soft bowel movements. Time from discharge to readmission was measured. All patients were required to have a follow up visit after discharge and maintain family support and employment. Patients were broken down into compliant and non-compliant groups with outpatient follow-up. Eighty-seven (87) patients were identified as compliant, while forty-nine (49) patients were identified as non-compliant. In the compliant group, there were 51 males and 36 females, with an age range of between 32 and 68 years. The ethnic group breakdown for the compliant group was as follows: 66% Caucasian, 14% African American, 17% Hispanic and 3% other. The mean MELD score of the compliant group was 12.5 points (range: 8-17). In the non-compliant group, there were 29 males and 20 females, with an age range of between 28 and 66 years. The ethnic group breakdown for the non-compliant group was as follows: 64% Caucasian, 18% African American and 18% Hispanic. The mean MELD score of the non-compliant group was 11.5 points (range: 6-18).

[3] = tested on: compensated cirrhotic patients with SHE; test: Chart review of daily caloric intake in compensated cirrhotic patients with subclinical hepatic encephalopathy; assay type: in vivo, human
From the text: The medical charts were reviewed for non-hospitalized patients with compensated cirrhosis with and without the diagnosis of subclinical hepatic encephalopathy. […] All patients were reported to be at baseline Conn score Grade 0-1 HE, and employment status was identified. Information collected included; gender, age, ethnicity, weight/height, exercise and employment status, and daily calorie counts for 14 days. Daily caloric intake was registered with food consumption logs by patients and family. Normal caloric intake was considered at 1600 to 2200 calories/day depending upon dietary requirements. The daily caloric totals were conducted with the Calorie Smart calculator. […] There were 64 patients involved in the study: 29 females, 35 males, age (range 19-68), ethnicity (81% Caucasian, 8% African American, 8% Hispanic, 3% other), and mean MELD 8.5 points (range 6-13). There were no events of occult HE or hospitalizations throughout the review.

[4] = tested on: species of Staphylococcus, Streptococcus, Enterococcus, and Enterobacteriaceae; conditions: in vitro data; cited from earlier work
[5] = relative to lactulose monotherapy or combined therapy

Compound | Survival Rates, One Year [1] [%] | Survival Rates, Six Months [1] [%] | Survival Rates, Three Years [1] [%] | number of hospital readmissions ([2]; compliant and non-compliant populations, comparison of LAC, RFX, RFX/LAC groups) | adverse effect [3] | caloric intake (in words) [3] | short- and long-term survival ([1]; addition of rifaximin, alone or in combination with lactulose, overt HE) | frequency of hospitalizations [2, 5] | time to hospital readmission [2, 5] | in vitro antibacterial activity [4]
OC[C@H]1O[C@@H](O[C@@H]2[C@@H](CO)OC(O)(CO)[C@H]2O)[C@H](O)[C@@H](O)[C@H]1O (mixture of isomers) [LAC, Lactulose] | 46 | 60 | 29 | highest | bowel bloating culminating in a sensation of decreased appetite | marked decrease | – | – | – | –
CO[C@H]1/C=C/O[C@@]2(C)Oc3c(C)c(O)c4c(O)c(c5c(nc6cc(C)ccn65)c4c3C2=O)NC(=O)/C(C)=C\C=C\[C@H](C)[C@H](O)[C@@H](C)[C@@H](O)[C@@H](C)[C@H](OC(C)=O)[C@@H]1C [RFX, Rifaximin] | 63 | 76 | 51 | – | – | appeared to maintain daily caloric intake | improvement | less frequent | greater | active
